# Test results reported in US9695178B2, “6-(2-pyridyl)-7,8-dihydro-5H-pyrido[4,3-D]pyrimidine analogs as hedgehog pathway signaling inhibitors and therapeutic applications thereof” (Suzhou Yunxuan Yiyao Keji Youxian Gongsi, priority 2013, dated 2017).
# Target: Smo (Homo sapiens, UniProt Q99835)
# Experiment: Bodipy-Cyclopamine Binding Assay (confirmation assay), Hek293-SMO cells
# Conditions: not given
# Smo, sequence (Q99835 28-787): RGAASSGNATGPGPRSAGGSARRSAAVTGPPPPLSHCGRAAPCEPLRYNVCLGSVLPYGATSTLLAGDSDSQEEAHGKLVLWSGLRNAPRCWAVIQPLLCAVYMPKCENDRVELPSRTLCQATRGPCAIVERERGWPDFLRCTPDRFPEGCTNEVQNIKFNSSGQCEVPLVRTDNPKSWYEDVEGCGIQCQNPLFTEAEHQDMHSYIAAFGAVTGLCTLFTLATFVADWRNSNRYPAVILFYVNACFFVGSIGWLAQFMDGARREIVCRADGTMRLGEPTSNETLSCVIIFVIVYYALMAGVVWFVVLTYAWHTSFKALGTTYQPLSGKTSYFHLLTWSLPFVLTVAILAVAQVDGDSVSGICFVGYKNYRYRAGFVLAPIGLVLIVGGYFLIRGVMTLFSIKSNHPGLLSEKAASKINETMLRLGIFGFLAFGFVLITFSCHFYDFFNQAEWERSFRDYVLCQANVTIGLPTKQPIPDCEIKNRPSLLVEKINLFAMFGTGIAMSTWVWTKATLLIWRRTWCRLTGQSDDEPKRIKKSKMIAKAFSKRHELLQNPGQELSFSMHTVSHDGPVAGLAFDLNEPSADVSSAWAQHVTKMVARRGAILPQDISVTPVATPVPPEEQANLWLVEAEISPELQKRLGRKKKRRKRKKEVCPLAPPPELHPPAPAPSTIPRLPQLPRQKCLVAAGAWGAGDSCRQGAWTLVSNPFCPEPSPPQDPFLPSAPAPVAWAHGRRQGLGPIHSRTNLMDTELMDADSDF
row,SMILES,IC50 [nM]
1,"Cc1cnc(-c2cc(N3Cc4cnc(NC5CC5)nc4C(C)C3)ncc2Cl)c(C)c1 (stereo not drawn) [Compound A-75, 6-(5′-chloro-3,5-dimethyl-2,4′-bipyridin-2′-yl)-N-cyclopropyl-8-methyl-5,6,7,8-tetrahydro-pyrido-[4,3-d]pyrimidin-2-amine]",257
2,"Cc1cnc(-c2cc(N3CCc4nc(NCC5CC5)sc4C3)ncc2Cl)c(C)c1 [Compound A-31, 5-(5′-chloro-3,5-dimethyl-2,4′-bipyridin-2′-yl)-N-(cyclopro-pylmeth-yl)-4,5,6,7-tetrahydro-thiazolo-[5,4-c]pyridin-2-amine]",54.8
3,"Clc1cnc(N2CCc3nc(NC4CC4)ncc3C2)cc1-c1ncccn1 [Compound A-115, 6-(5-chloro-4-(pyrimidin-2-yl)pyridin-2-yl)-N-cyclopropyl-5,6,7,8-tetrahydropyrido[4,3-d]pyrimidin-2-amine]",> 1000
4,"CSc1ncc2c(n1)C(C)(C)CN(c1cc(-c3ncc(C)cc3C)c(Cl)cn1)C2 [Compound A-79, 6-(5′-chloro-3,5-dimethyl-2,4′-bipyridin-2′-yl)-8,8-dimethyl-2-(methylthio)-5,6,7,8-tetrahydro-pyrido-[4,3-d]pyrim-idine]",188
5,"CCNc1ncc2c(n1)CCN(c1cc(-c3ncc(C)cc3C)c(Cl)cn1)C2 [Compound A-51, 6-(5′-chloro-3,5-dimethyl-2,4′-bipyridin-2′-yl)-N-ethyl-5,6,7,8-tetrahydro-pyrido-[4,3-d]pyrimidin-2-amine]",16.8
6,"Cc1cnc(-c2cc(N3CCc4nc(NC5CC5)ncc4C3)ncc2Cl)c(C)c1 [Compound A-52, 6-(5′-chloro-3,5-dimethyl-2,4′-bipyridin-2′-yl)-N-cyclopropyl-5,6,7,8-tetrahydropyrido[4,3-d]pyrimidin-2-amine]",5.4
7,"Cc1cnc(-c2cc(N3CCc4nc(NC(=O)C(C)(C)C)sc4C3)ncc2Cl)c(C)c1 [Compound A-28, N-(5-(5′-chloro-3,5-dimethyl-2,4′-bipyridin-2′-yl)-4,5,6,7-tetrahydro-thiazolo-[5,4-c]pyridin-2-yl)pivalamide]",127
8,"Cc1cnc(-c2cc(N3Cc4cnc(N5CCCC5)nc4C(C)C3)ncc2Cl)c(C)c1 (stereo not drawn) [Compound A-77, 6-(5′-chloro-3,5-dimethyl-2,4′-bipyridin-2′-yl)-8-methyl-2-(pyrrolidin-1-yl)-5,6,7,8-tetrahydropyrido[4,3-d]pyrimidine]",92.9
9,"Cc1cnc(-c2cc(N3CCc4nc(N5CCCC5)ncc4C3)ncc2Cl)c(C)c1 [Compound A-53, 6-(5′-chloro-3,5-dimethyl-2,4′-bipyridin-2′-yl)-2-(pyrrolidin-1-yl)-5,6,7,8-tetrahydro-pyrido-[4,3-d]pyrimidine]",24.9
10,"Cc1cnc(-c2cc(N3CCc4nc(OCC5CC5)ncc4C3)ncc2Cl)c(C)c1 [Compound A-73, 6-(5′-chloro-3,5-dimethyl-2,4′-bipyridin-2′-yl)-2-(cyclopropyl-methoxy)-5,6,7,8-tetrahydro-pyrido-[4,3-d]pyrim-idine]",84
11,"Cc1cnc(-c2cc(N3CCc4nc(N5CCOCC5)ncc4C3)ncc2Cl)c(C)c1 [Compound A-56, 4-(6-(5′-chloro-3,5-dimethyl-2,4′-bipyridin-2′-yl)-5,6,7,8-tetrahydro-pyrido-[4,3-d]pyrimidin-2-yl)morpholine]",48.7
12,"Cc1cnc(-c2cc(N3CCc4nc(NC(=O)NC(C)C)ncc4C3)ncc2Cl)c(C)c1 [Compound A-92, 1-(6-(5′-chloro-3,5-dimethyl-2,4′-bipyridin-2′-yl)-5,6,7,8-tetrahydropyrido-[4,3-d]pyrimidin-2-yl)-3-isopropylurea]",961
13,"Clc1cnc(N2CCc3nc(NC4CC4)ncc3C2)cc1-c1cnccn1 [Compound A-116, 6-(5-chloro-4-(pyrazin-2-yl)pyridin-2-yl)-N-cyclopropyl-5,6,7,8-tetrahydropyrido[4,3-d]pyrimidin-2-amine]",235

# The next lines start with the values.
row,IC50 [nM],SMILES
1,1260,"CNC(=O)c1cn2c(n1)CN(c1cc(-c3ncc(C)cc3C)c(Cl)cn1)CC2 [Compound A-6, 7-(5′-chloro-3,5-dimethyl-2,4′-bipyridin-2′-yl)-N-methyl-5,6,7,8-tetrahydro-imidazo-[1,2-a]pyrazine-2-carboxamide]"
2,244,"Cc1cnc(-c2cc(N3CCn4cc(C(=O)N5CCCC5)nc4C3)ncc2Cl)c(C)c1 [Compound A-3, (7-(5′-chloro-3,5-dimethyl-2,4′-bipyridin-2′-yl)-5,6,7,8-tetrahydroimidazo[1,2-a]pyrazin-2-yl)(pyrrolidin-1-yl)methanone]"
3,321,"CCOC(=O)c1cn2c(n1)CN(c1cc(-c3ncc(C)cc3C)c(Cl)cn1)CC2 [Compound A-1, ethyl 7-(5′-chloro-3,5-dimethyl-2,4′-bipyridin-2′-yl)-5,6,7,8-tetrahydro-imidazo-[1,2-a]pyrazine-2-carboxylate]"
4,487,"CCOC(=O)Nc1nc2c(s1)CN(c1cc(-c3ncc(C)cc3C)c(Cl)cn1)CC2 [Compound A-37, ethyl 5-(5′-chloro-3,5-dimethyl-2,4′-bipyridin-2′-yl)-4,5,6,7-tetrahydro-thiazolo-[5,4-c]pyridin-2-ylcarbamate]"
5,423,"COCC(=O)Nc1nc2c(s1)CN(c1cc(-c3ncc(C)cc3C)c(Cl)cn1)CC2 [Compound A-27, N-(5-(5′-chloro-3,5-dimethyl-2,4′-bipyridin-2′-yl)-4,5,6,7-tetrahydro-thiazolo-[5,4-c]pyridin-2-yl)-2-methoxy-acetamide]"
6,> 1000,"Cc1cnc(-c2cc(N3CCn4cc(NC(=O)C(F)(F)F)nc4C3)ncc2Cl)c(C)c1 [Compound A-12, N-(7-(5′-chloro-3,5-dimethyl-2,4′-bipyridin-2′-yl)-5,6,7,8-tetrahydro-imidazo-[1,2-a]pyrazin-2-yl)-2,2,2-trifluoro-acetamide]"
7,190,"CCNC(=O)Nc1nc2c(s1)CN(c1cc(-c3ncc(C)cc3C)c(Cl)cn1)CC2 [Compound A-42, 1-(5-(5′-chloro-3,5-dimethyl-2,4′-bipyridin-2′-yl)-4,5,6,7-tetrahydro-thiazolo-[5,4-c]pyridin-2-yl)-3-ethylurea]"
8,507,"Cc1cnc(-c2cc(N3CCn4cc(C(=O)Nc5ccccc5F)nc4C3)ncc2Cl)c(C)c1 [Compound A-20, 7-(5′-chloro-3,5-dimethyl-2,4′-bipyridin-2′-yl)-N-(2-fluorophenyl)-5,6,7,8-tetrahydro-imidazo-[1,2-a]pyrazine-2-carboxamide]"
9,> 1000,"COCC(=O)Nc1cn2c(n1)CN(c1cc(-c3ncc(C)cc3C)c(Cl)cn1)CC2 [Compound A-14, N-(7-(5′-chloro-3,5-dimethyl-2,4′-bipyridin-2′-yl)-5,6,7,8-tetrahydro-imidazo-[1,2-a]pyrazin-2-yl)-2-methoxy-acetamide]"
10,> 1000,"Cc1cnc(-c2cc(N3CCn4cc(C(=O)OC5CCCC5)nc4C3)ncc2Cl)c(C)c1 [Compound A-17, cyclopentyl 7-(5′-chloro-3,5-dimethyl-2,4′-bipyridin-2′-yl)-5,6,7,8-tetrahydro-imidazo-[1,2-a]pyrazine-2-carboxylate]"

# Same assay, conditions: read-out: Kd of bodipy-cyclopamine for WT-Smo; used in the Cheng-Prusoff equation
row,SMILES,Kd [nM]
1,"CC1=C2CC3C(CC=C4C[C@@H](O)CCC43C)C2CCC12O[C@@H]1CC(C)CN(CCNC(=O)CCCCCNC(=O)CCC3=[N+]4C(=Cc5c(C)cc(C)n5[B-]4(F)F)C=C3)C1C2C (stereo partly drawn) [bodipy-cyclopamine, reference compound]",3.5 ± 0.8
